According to paper PMC8952364, “Polyphenols as Inhibitors of Antibiotic Resistant Bacteria—Mechanisms Underlying Rutin Interference with Bacterial Virulence” (Pharmaceuticals, 2022):
Values after ≈ are worked out from the molar mass of the structure shown.

How the values were obtained:
[1] = test system: P. aeruginosa IBRS P001 biofilm; assay: Congo red binding assay, exopolysaccharide production (biofilm formation); format: cell-based, Pseudomonas aeruginosa
Protocol: The estimation of rutin’s impact on biofilm exopolysaccharide production (EPS) was determined by the Congo red binding assay. P. aeruginosa IBRS P001 biofilm EPS production was determined as previously described. […] The planktonic cells were removed, and the adherent cells were washed with PBS. Wells were stained with 1% (w/v) Congo red (SigmaAldrich, Germany) in the dark for 30 min. Wells were aspirated and subsequently the bound dye was solubilized with 200 μL DMSO. Absorbance at 490 nm was measured in a microtiter plate reader Multiskan™ FC microplate photometer (Thermo Scientific™, United States) and the inhibition percentage of EPS production was calculated according to the following equation:%Inhibition = [(A490control − A490sample)/A490control] × 100
With A490control representing the absorbance of the untreated biofilm and A490sample the absorbance of the rutin treated sample. The solvent treated sample was used as the control.

[2] = test system: P. aeruginosa IBRS P001 protease production; assay: Protease assay (azocasein); format: cell-based, Pseudomonas aeruginosa; details: 0.25 mg/mL (0.5 MIC), compared to the control
Protocol: The impact of rutin on the proteolytic activity of P. aeruginosa IBRS P001 was measured using azocasein as a substrate. […] Samples were centrifuged at 9660 g, room temperature, for 10 min (Heraeus biofuge stratos centrifuge, Thermo Electron Corporation, Waltham, MA, USA). Afterwards, the supernatant was mixed with azocasein (2%, SigmaAldrich, Germany) and incubated at 37 °C for 45 min. The reaction was stopped using 10% trichloroacetic acid and centrifuged at 9660× g, RT for 10 min. After centrifugation, the absorbance of the supernatants was measured at 440 nm and protease production in the treated sample calculated compared to the control (100% production).

[3] = test system: P. aeruginosa IBRS P001 biofilm; assay: Biofilm MTT assay (biofilm formation); format: cell-based, Pseudomonas aeruginosa; details: rutin MIC, co-incubation 24 h
Protocol: (§1) The impact of rutin on P. aeruginosa IBRS P001 biofilm formation was determined as previously described by estimating the metabolic activity of microbial cells using an MTT assay. […] The supernatants were then ejected and the biofilms washed with PBS. MTT reagent (200 μL, 0.5 mg/mL) was added and the plate was incubated at 37 °C in the dark for 2 h. The resulting dye was dissolved in DMSO and the absorbance was measured at 570 nm in a microtiter plate reader Multiskan™ FC Microplate Photometer, Thermo Scientific™. The inhibition percentage of biofilm cell viability was calculated:%Inhibition = [(A570control − A570sample)/A570control] × 100
With A570control representing the absorbance of untreated sample, and A570sample representing the absorbance of the rutin treated sample. A solvent-treated sample was used as the control.

A. baumannii S2/2 = assay: Antimicrobial microdilution assay (MIC/MBC); format: cell-based, Acinetobacter baumannii; details: Acinetobacter baumannii, S2/2
Summary of the method: (§2)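 Broth microdilution with 0.5 McFarland suspension diluted twenty-fold and mixed 1:10 with compound (0.0039–1 mg/mL, from 30% ethanol stocks); 24 h at 37 °C. Triplicate runs.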

A. baumannii 6077/12 = assay: Antimicrobial microdilution assay (MIC/MBC); format: cell-based, Acinetobacter baumannii; details: Acinetobacter baumannii, 6077/12
Summary of the method: as §2

[4] = test system: 24 h old P. aeruginosa IBRS P001 biofilms; assay: Biofilm eradication, crystal violet assay (biofilm mass); format: cell-based, Pseudomonas aeruginosa; details: 4 MBC—4 mg/mL, 24 h treatment
Protocol: After incubation, each well was washed twice with sterile PBS (phosphate-buffered saline, pH 7.4) and fixed with methanol for 10 min. After removal of methanol the plate was air-dried. The biofilm was stained with 0.1% crystal violet (Bio-Merieux, Marcy l’Etoile, France) for 30 min. The plate was washed with water, air dried, and the stain was dissolved with 200 μL of 96% ethanol (Zorka, Sabac, Serbia). The absorbance was read at 620 nm on a Multiskan™ FC microplate photometer (Thermo Scientific™, Waltham, MA, USA). The results are presented as biofilm forming capacity (%) compared to control.
(§3) The bacterial cells were incubated in TSB enriched with 2% glucose in 96-well plates (Sarstedt, Germany) with adhesive bottom at 37 °C for 24 h. After incubation, wells were washed with PBS, and rutin (MBC–4 MBC) in TSB with 2% glucose was added. Incubation continued at 37 °C for another 24 h. The planktonic cells were removed.
(§4) The assays continued as described above for the crystal violet antibiofilm assay for the measurement of biofilm mass, biofilm MTT assay for the interference with cell viability, Congo red binding assay for estimation of exopolysaccharide production, and eDNA assay.

P. aeruginosa IBRS P001 = assay: Catheter biofilm eradication model (24 h old biofilm); format: cell-based, Pseudomonas aeruginosa
Protocol: For the catheter biofilm eradication assay, P. aeruginosa and MRSA were incubated in TSB with 2% glucose with 1 cm long catheters in 24-well plates at 37 °C for 24 h. […] Subsequently, the catheters were washed and treated, as described above.

[5] = test system: 24 h old P. aeruginosa IBRS P001 biofilms; assay: Biofilm eradication, MTT assay (cell viability); format: cell-based, Pseudomonas aeruginosa
Protocol: as §1, §3, §4

E. coli IMD989 = assay: Antimicrobial microdilution assay (MIC/MBC); format: cell-based, Escherichia coli; details: Escherichia coli, IMD989
Summary of the method: as §2

E. coli IBRS E003 = assay: Antimicrobial microdilution assay (MIC/MBC); format: cell-based, Escherichia coli; details: Escherichia coli, IBRSE003
Summary of the method: as §2

[6] = subcultivation, 24 h at 37 °C, read-out: MBC

## C[C@@H]1O[C@@H](OC[C@H]2O[C@@H](Oc3c(-c4ccc(O)c(O)c4)oc4cc(O)cc(O)c4c3=O)[C@H](O)[C@@H](O)[C@@H]2O)[C@H](O)[C@H](O)[C@H]1O [Rutin, rutin]
[1]; 0.25 MIC
  exopolysaccharide level, % of production compared to vehicle treated control: 72%
[1]; 0.5 MIC
  exopolysaccharide level, % of production compared to vehicle treated control: 56%
[1]; MIC
  exopolysaccharide level, % of production compared to vehicle treated control: 50%
[1]; Pseudomonas aeruginosa, IBRSP001BIOFILM, read-out: inhibition of produced exopolysaccharides
  inhibition at 250 µg/mL: 44%
[2]
  decrease of protease production: more than 50%
[3]
  reduction of metabolic activity of cells forming the biofilm: 88%
A. baumannii S2/2; 37 °C, 24 h, read-out: MIC
  MIC: 500 µg/mL (≈ 819 µM)
A. baumannii S2/2; [6]
  MBC: 500 µg/mL (≈ 819 µM)
A. baumannii 6077/12; 37 °C, 24 h, read-out: MIC
  MIC: 500 µg/mL (≈ 819 µM)
A. baumannii 6077/12; [6]
  MBC: 500 µg/mL (≈ 819 µM)
[4]
  inhibition of pre-formed biofilm biomass: 35%
P. aeruginosa IBRS P001; 2 MBC, 24 h old biofilm
  catheter biofilm eradicated: 73.7%
P. aeruginosa IBRS P001; 24 h old catheter biofilm, concentration not printed (MBC-4MBC tested, probably 4 MBC)
  biofilm cells remained viable after the treatment: 10.9%
[5]; Pseudomonas aeruginosa, MBC, 1 mg/mL, read-out: viability of cells within the biofilms
  viability at 1000 µg/mL: 92%
[5]; maximal concentration examined (4 MBC)
  viability of cells within the biofilms: 55%
E. coli IMD989; 37 °C, 24 h, read-out: MIC
  MIC: 1000 µg/mL (≈ 1640 µM)
E. coli IMD989; [6]
  MBC: 1000 µg/mL (≈ 1640 µM)
E. coli IBRS E003; 37 °C, 24 h, read-out: MIC
  MIC: > 1000 µg/mL
E. coli IBRS E003; [6]
  MBC: > 1000 µg/mL
